Laboratory results: paper PMC10449877, “Structural basis of peptidoglycan synthesis by E. coli RodA-PBP2 complex” (Nature Communications, 2023)

Tests used:
[1] = molecular target: T1, E. coli RodA-PBP2 fusion (PBP2 TP domain) (Escherichia coli, UniProt P0AD65); experiment: fluorescent bocillin labelling, SDS-PAGE; type: binding; conditions: covalent; TP active site of PBP2; labelled compound; 15 min
T1 construct: gene mrdA; with Peptidoglycan glycosyltransferase MrdB
T1 sequence (P0AD65 1-633): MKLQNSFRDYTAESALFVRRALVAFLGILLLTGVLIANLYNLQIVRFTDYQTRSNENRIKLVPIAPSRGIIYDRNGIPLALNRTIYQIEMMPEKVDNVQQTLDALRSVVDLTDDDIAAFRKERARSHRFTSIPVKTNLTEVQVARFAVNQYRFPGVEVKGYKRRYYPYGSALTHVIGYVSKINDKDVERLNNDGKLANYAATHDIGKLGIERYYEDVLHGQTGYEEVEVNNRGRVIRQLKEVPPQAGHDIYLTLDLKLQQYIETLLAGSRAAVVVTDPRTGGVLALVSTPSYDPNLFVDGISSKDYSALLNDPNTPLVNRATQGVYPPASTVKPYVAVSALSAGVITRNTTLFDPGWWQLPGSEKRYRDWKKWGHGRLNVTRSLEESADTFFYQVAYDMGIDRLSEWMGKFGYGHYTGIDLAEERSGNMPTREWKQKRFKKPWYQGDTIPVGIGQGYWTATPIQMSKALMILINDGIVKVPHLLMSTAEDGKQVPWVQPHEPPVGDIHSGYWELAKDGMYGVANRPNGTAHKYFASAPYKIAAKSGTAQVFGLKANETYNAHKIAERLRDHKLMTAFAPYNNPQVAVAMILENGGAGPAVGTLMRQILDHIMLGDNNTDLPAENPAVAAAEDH
T1 sequence (P0ABG7 1-370 partner): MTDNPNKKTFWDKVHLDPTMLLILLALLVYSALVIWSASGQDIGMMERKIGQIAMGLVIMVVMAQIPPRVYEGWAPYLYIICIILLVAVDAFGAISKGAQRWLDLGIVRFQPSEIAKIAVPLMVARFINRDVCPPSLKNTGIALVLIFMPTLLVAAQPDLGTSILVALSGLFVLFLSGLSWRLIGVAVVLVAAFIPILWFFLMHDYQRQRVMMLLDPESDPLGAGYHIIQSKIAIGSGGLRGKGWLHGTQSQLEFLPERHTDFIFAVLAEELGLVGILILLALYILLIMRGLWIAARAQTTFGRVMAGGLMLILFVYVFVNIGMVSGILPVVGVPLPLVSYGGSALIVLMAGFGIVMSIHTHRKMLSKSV

E. coli PBP2 = molecular target: T2, E. coli PBP2 (Escherichia coli str. K-12 substr. …, UniProt P0AD65 1-633); experiment: cryo-EM structure; single-particle cryo-EM of the RodA-PBP2 fusion (one chain, TSGSGSGS linker) in POPG / MSP1E3D1 nanodiscs; 20 mM HEPES pH 7, 150 mM NaCl, 1 mM TCEP; 0.66 mg/ml (5.9 uM); conditions: both partners purified
T2 construct: K-12 substr; MG1655, UniProt P0AD65; residues 10-343, 401-430, 457-540 and 569-612 built in the map; PBP2 Gln99 is residue 476 in the fusion; the poly-histidine tag of the fusion is written on m1; also called transpeptidase (TP); source: E. coli BL21(DE3) pLysS, purified (Ni-NTA, SEC), reconstituted in POPG / MSP1E3D1 nanodiscs
T2 sequence (looked up): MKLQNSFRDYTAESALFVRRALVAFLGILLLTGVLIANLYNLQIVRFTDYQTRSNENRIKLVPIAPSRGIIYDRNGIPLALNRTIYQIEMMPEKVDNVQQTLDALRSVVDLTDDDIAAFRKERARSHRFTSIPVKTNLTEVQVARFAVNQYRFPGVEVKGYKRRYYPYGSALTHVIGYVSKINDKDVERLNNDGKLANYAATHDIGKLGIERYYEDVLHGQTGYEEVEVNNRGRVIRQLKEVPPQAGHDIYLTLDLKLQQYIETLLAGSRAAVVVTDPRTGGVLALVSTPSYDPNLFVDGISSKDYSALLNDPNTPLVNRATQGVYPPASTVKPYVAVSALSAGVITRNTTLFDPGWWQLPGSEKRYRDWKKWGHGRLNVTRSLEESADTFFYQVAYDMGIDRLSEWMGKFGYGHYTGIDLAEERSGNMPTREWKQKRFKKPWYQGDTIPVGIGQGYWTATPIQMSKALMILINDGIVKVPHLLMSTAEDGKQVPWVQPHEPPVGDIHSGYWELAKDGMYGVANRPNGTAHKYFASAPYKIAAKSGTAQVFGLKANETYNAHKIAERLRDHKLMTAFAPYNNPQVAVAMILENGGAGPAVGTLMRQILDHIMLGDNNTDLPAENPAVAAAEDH

Cc1cc(C)n2c1C=C1C=CC(CCC(=O)Nc3ccc(OCC(=O)N[C@@H]4C(=O)N5[C@@H]4SC(C)(C)[C@@H]5C(=O)O)cc3)=[N+]1[B-]2(F)F [bocillin]
fluorescent bocillin labelling, SDS-PAGE [1]: The TP domain binds (and is covalently modified by) a fluorescent penicillin mimic bocillin

B1: E. coli RodA (enzyme, UniProt P0ABG7 1-370, looked up)
chain: MTDNPNKKTFWDKVHLDPTMLLILLALLVYSALVIWSASGQDIGMMERKIGQIAMGLVIMVVMAQIPPRVYEGWAPYLYIICIILLVAVDAFGAISKGAQRWLDLGIVRFQPSEIAKIAVPLMVARFINRDVCPPSLKNTGIALVLIFMPTLLVAAQPDLGTSILVALSGLFVLFLSGLSWRLIGVAVVLVAAFIPILWFFLMHDYQRQRVMMLLDPESDPLGAGYHIIQSKIAIGSGGLRGKGWLHGTQSQLEFLPERHTDFIFAVLAEELGLVGILILLALYILLIMRGLWIAARAQTTFGRVMAGGLMLILFVYVFVNIGMVSGILPVVGVPLPLVSYGGSALIVLMAGFGIVMSIHTHRKMLSKSV
notes: RodA, Escherichia coli str; K-12 substr; MG1655; UniProt ID printed as '0ABG7'; residues 9-93 and 109-364 built in the map; They are written as two molecules for the pair row; No TEV cleavage is described; also called SEDS glycosyltransferase (GT); RodA part of the RodA-PBP2 fusion; source: E. coli BL21(DE3) pLysS, purified (Ni-NTA, SEC), reconstituted in POPG / MSP1E3D1 nanodiscs
binding result (E. coli PBP2): binds
